This note sets out measurements from patent US20230107216A1, “PANTETHEINE DERIVATIVES AND USES THEREOF” (Comet Therapeutics, Inc., priority 2018, published 2023).

Read-outs that look alike come from different tables or passages of the source. Where only a bound is given, the exact number is not on record here.

The subject of test [1] is primary fibroblasts (healthy controls and PA, MMA, BCKDK, PDH, VLCAD, LS, PC, GA, VLCFA, KSS, FXN, HD). Description: Measurement of ROS (H2DCFDA) in primary fibroblasts. In kind it is cell-based, human. The note with it: procedure Example 812; for inhibition at 10 µM: Homo sapiens. The essentials:
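Patient and healthy-control primary fibroblasts switched to supplemented DMEM 24 h before assay, then treated with compound (10 μM) plus H2DCFDA (22 μM) for 2 h (PA, MMA lines) or 24 h (other lines). Kinetic fluorescence at 492/527 nm over 60 min; only live cells analysed.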

In test [2] the test system is HepG2 cells. The test can be described thus: Glucose uptake (Glucose Uptake-Glo). The note with it: Homo sapiens, read-out: % increase in Glucose Uptake. The test is classed as cell-based.
The subject of test [3] is HepG2 cells. The test can be described thus: Mitochondrial membrane potential (MITO-ID MP detection Kit). The test is classed as cell-based. The note with it: Homo sapiens, 168 h, 7 days; for activation at 10 µM: read-out: % increase in Mitochondrial Membrane Potential; for inhibition at 50 µM / inhibition at 10 µM: read-out: % decrease in Mitochondrial Membrane Potential. The essentials: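 Cells plated at 160000 cells/mL in DMEM with 10% FBS and 1% Pen-Strep, adhered overnight at 37° C., 5% CO2. Exposure to test compounds (50-10 μM) or 0.2% DMSO for 7 days without media change; membrane potential measured with MITO-ID MP detection kit per manufacturer.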

[4] abbreviates: Fibroblast, BCKD GM00649, Assay Condition C, read-out: Decreased ROS by at least 10%.
Where [5] appears, read: Fibroblast, BCKD GM00649, Assay Condition C, read-out: Decreased ROS by at least 30%.
The mark [6] stands for this setting: FXN GM04078, Assay Condition C, read-out: Decreased ROS by at least 10%.
The mark [7] stands for this setting: FXN GM04078, Assay Condition C, read-out: Decreased ROS by at least 30%.
Where [8] appears, read: Fibroblast, BCKD GM00612, Assay Condition A, read-out: Decreased ROS by at least 10%.
The mark [9] stands for this setting: Fibroblast, VLCFA GM13262, Assay Condition C, read-out: Decreased ROS by at least 30%.
Where [10] appears, read: Fibroblast, PDH GM01503, Assay Condition C, read-out: Decreased ROS by at least 10%.
Setting [11] is: Fibroblast, PDH GM01503, Assay Condition C, read-out: Decreased ROS by at least 30%.

With `C[C@H](CC(=O)SCCNC(=O)CCNC(=O)[C@H](O)C(C)(C)CO)OC(=O)CCC(=O)O` [Compound 1243, 4-{[(2R)-4-[(2-{3-[(2R)-2,4-dihydroxy-3,3-dimethylbutanamido]propanamido}ethyl)sulfanyl]-4-oxobutan-2-yl]oxy}-4-oxobutanoic acid], the inhibition at 10 µM in test [1] (setting [4]) is not below 10%; in test [1] (setting [5]), not below 30%; in test [1] (setting [6]), not below 10%; in test [1] (setting [7]), not below 30%.
For the compound `CC(C)(CO)[C@@H](O)C(=O)NCCC(=O)NCCSC(=O)CCCN` [Compound 370, (2R)—N-[2-([2-[(4-aminobutanoyl)sulfanyl]ethyl]carbamoyl)ethyl]-2,4-dihydroxy-3,3-dimethylbutanamide], the activation at 50 µM with HepG2 cells [2] was not below 30%.
Take `COC(=O)CC[C@H](N)C(=O)SCCNC(=O)CCNC(=O)[C@H](O)C(C)(C)CO` [Compound 411]: the inhibition at 10 µM in test [1] (setting [8]) was not below 10%; in test [1] (setting [9]) it was not below 30%; in test [1] (setting [6]) it was not below 10%; in test [1] (setting [7]), not below 30%. The activation at 10 µM in the test with HepG2 cells [3] is 10%. In the test on HepG2 cells [3], the inhibition at 50 µM is more than 20%.
Turning to `CC1(CC(=O)SCCNC(=O)CCNC(=O)[C@H](O)C(C)(C)CO)OCCO1` [Compound 1252, (R)—S-(2-(3-(2,4-dihydroxy-3,3-dimethylbutanamido)propanamido)ethyl)-2-(2-methyl-1,3-dioxolan-2-yl)ethanethioate], the inhibition at 10 µM in test [1] (setting [10]) is not below 10%; in test [1] (setting [11]), not below 30%. Further, the activation at 10 µM in the test with HepG2 cells [3] was more than 20%.
As for `CCC(C)C(=O)CC(=O)SCCNC(=O)CCNC(=O)[C@H](O)C(C)(C)CO` (stereo partly drawn) [Compound 1240, S-(2-(3-((R)-2,4-dihydroxy-3,3-dimethylbutanamido)propanamido)ethyl) 4-methyl-3-oxohexanethioate], the inhibition at 10 µM in test [1] (setting [8]) is not below 10%; in test [1] (setting [9]), not below 30%; in test [1] (setting [6]), not below 10%; in test [1] (setting [7]), not below 30%. Further, in the test with HepG2 cells [3], the inhibition at 50 µM is more than 50%.
Take `CC(C)(CO)[C@@H](O)C(=O)NCCC(=O)NCCSC(=O)CCC(=O)O` [Compound 1, (R)-4-((2-(3-(2,4-dihydroxy-3,3-dimethylbutanamido)propanamido)ethyl)thio)-4-oxobutanoic acid]: the activation at 10 µM in the test on HepG2 cells [2] is not below 30%.
As to `COC(=O)CCC(=O)SCCNC(=O)CCNC(=O)[C@H](O)C(C)(C)CO` [Compound 4, Methyl (R)-4-((2-(3-(2,4-dihydroxy-3,3-dimethylbutanamido)propanamido)ethyl)thio)-4-oxobutanoate], the inhibition at 10 µM in test [1] (setting [4]) is not below 10%; in test [1] (setting [5]), not below 30%; with HepG2 cells [3] it was more than 30%.
For the compound `C[C@H](O)CC(=O)CC(=O)SCCNC(=O)CCNC(=O)[C@H](O)C(C)(C)CO` [Compound 1306, (2R)-2,4-dihydroxy-N-[2-[(2-[[(5S)-5-hydroxy-3-oxohexanoyl]sulfanyl]ethyl)carbamoyl]ethyl]-3,3-dimethylbutanamide], the “Decreased ROS by at least 30%” value in test [1] (Healthy GM05659, Assay Condition A) was not below 30%; in test [1] (Healthy GM23974, Assay Condition A) it was not below 30%. Moreover, the inhibition at 10 µM was not below 10% in test [1] (setting [10]), not below 30% in test [1] (setting [11]), not below 10% in test [1] (setting [6]) and not below 30% in test [1] (setting [7]). Moreover, the activation at 10 µM with HepG2 cells [2] is not below 30%.
In the case of `CC(C)(COC(=O)CCC(=O)O)[C@@H](O)C(=O)NCCC(=O)NCCS` [Compound 1310, (R)-4-(3-hydroxy-4-((3-((2-mercaptoethyl)amino)-3-oxopropyl)amino)-2,2-dimethyl-4-oxobutoxy)-4-oxobutanoic acid], the inhibition at 10 µM in test [1] (setting [8]) was not below 10%. Further, in test [1] (setting [9]), the inhibition at 10 µM was not below 30%. In addition, in the test on HepG2 cells [3], the activation at 10 µM amounted to 20% and the inhibition at 50 µM is more than 30%.
In the case of `COC(=O)CCC(=O)SCCNC(=O)CCNC(=O)[C@H](OC(=O)CNC(C)=O)C(C)(C)CO` [Compound 1298, methyl 4-[(2-[3-[(2R)-2-[(2-acetamidoacetyl)oxy]-4-hydroxy-3,3-dimethylbutanamido]propanamido]ethyl)sulfanyl]-4-oxobutanoate], the activation at 50 µM with HepG2 cells [2] is not below 20%.
In the case of `CC(=O)SCCNC(=O)CCNC(=O)[C@H](O)C(C)(C)COC(=O)CN` [Compound 560, (3R)-3-[(2-[[2-(acetylsulfanyl)ethyl]carbamoyl]ethyl)carbamoyl]-3-hydroxy-2,2-dimethylpropyl 2-aminoacetate], in test [1] (setting [6]), the inhibition at 10 µM was not below 10%.
Turning to `CC(C)(CO)[C@@H](O)C(=O)NCCC(=O)NCCSC(=O)[C@@H](N)Cc1ccc(O)c(O)c1` [Compound 371, (2R)—N-[2-[(2-[[(2S)-2-amino-3-(3,4-dihydroxyphenyl)propanoyl]sulfanyl]ethyl)carbamoyl]ethyl]-2,4-dihydroxy-3,3-dimethylbutanamide], the activation at 10 µM with HepG2 cells [2] was not below 30%.
For the compound `C/C=C/C(=O)SCCNC(=O)CCNC(=O)[C@H](O)C(C)(C)COP(=O)(O)O` [Compound 82, (R)—S-(2-(3-(2-hydroxy-3,3-dimethyl-4-(phosphonooxy)butanamido)propanamido)ethyl) (E)-but-2-enethioate], in the test with HepG2 cells [3], the activation at 10 µM came out at 10% and the inhibition at 50 µM was more than 20%.
As to `CCCCCCC(=O)SCCNC(=O)CCNC(=O)[C@H](O)C(C)(C)CO` [Compound 372, (2R)—N-(2-[[2-(heptanoylsulfanyl)ethyl]carbamoyl]ethyl)-2,4-dihydroxy-3,3-dimethylbutanamide], the inhibition at 10 µM in test [1] (setting [6]) was not below 10%; in test [1] (setting [7]), not below 30%.
In the case of `COC(=O)CCC(=O)SCCNC(=O)CCNC(=O)[C@H](O)C(C)(C)COC(C)=O` [Compound 138], the inhibition at 10 µM was not below 10% in test [1] (Fibroblast, NPC1 GM22879, Assay Condition C, read-out: Decreased ROS by at least 10%); not below 30% in test [1] (Fibroblast, NPC1 GM22879, Assay Condition C, read-out: Decreased ROS by at least 30%); not below 10% in test [1] (setting [6]).
Regarding `CC(=O)SCCNC(=O)CCNC(=O)[C@H](O)C(C)(C)COC(=O)[C@@H](N)Cc1ccc(O)c(O)c1` [Compound 498, (3R)-3-[(2-[[2-(acetylsulfanyl)ethyl]carbamoyl]ethyl)carbamoyl]-3-hydroxy-2,2-dimethylpropyl (2S)-2-amino-3-(3,4-dihydroxyphenyl)propanoate], the activation at 50 µM with HepG2 cells [2] was not below 10%.
For `CC(C(=O)SCCNC(=O)CCNC(=O)[C@H](O)C(C)(C)CO)[C@@H](C)O` (stereo partly drawn) [Compound 1244, (2R)-2,4-dihydroxy-N-{2-[(2-{[(3R)-3-hydroxy-2-methylbutanoyl]sulfanyl}ethyl)carbamoyl]ethyl}-3,3-dimethylbutanamide], the inhibition at 10 µM in test [1] (setting [8]) is not below 10%; in test [1] (setting [9]), not below 30%.
Turning to `COC(=O)CCC(=O)SCCNC(=O)CCNC(=O)[C@H](OC(=O)CN)C(C)(C)CO` [Compound 1294, methyl 4-[(2-[3-[(2R)-2-[(2-aminoacetyl)oxy]-4-hydroxy-3,3-dimethylbutanamido]propanamido]ethyl)sulfanyl]-4-oxobutanoate], in the test with HepG2 cells [2], the activation at 10 µM was not below 30%.
As to `CC(C)C(=O)CC(=O)SCCNC(=O)CCNC(=O)[C@H](O)C(C)(C)CO` [Compound 1239, (R)—S-(2-(3-(2,4-dihydroxy-3,3-dimethylbutanamido)propanamido)ethyl) 4-methyl-3-oxopentanethioate], the inhibition at 10 µM in test [1] (setting [8]) was not below 10%; in test [1] (setting [9]), not below 30%; in test [1] (setting [6]) it was not below 10%; in test [1] (setting [7]), not below 30%.
Turning to `CC(C)(CO)[C@@H](O)C(=O)NCCC(=O)NCCSC(=O)CCCO` [Compound 1304, (2R)-2,4-dihydroxy-N-[2-([2-[(4-hydroxybutanoyl)sulfanyl]ethyl]carbamoyl)ethyl]-3,3-dimethylbutanamide], the inhibition at 10 µM in test [1] (setting [10]) was not below 10%; in test [1] (setting [11]) it was not below 30%. Moreover, the activation at 10 µM in the test on HepG2 cells [2] was not below 20%.
For the compound `CC(C)(CO)[C@@H](O)C(=O)NCCC(=O)NCCSC(=O)C1CCC(=O)N1` (stereo partly drawn) [Compound 1227, S-2-{3-[(R)-2,4-dihydroxy-3,3-dimethylbutyrylamino]propionylamino}ethyl 5-oxo-2-pyrrolidinecarbothioate], the inhibition at 10 µM in the test with HepG2 cells [3] is more than 30%.
Regarding `CC(C)=CC(=O)SCCNC(=O)CCNC(=O)[C@H](O)C(C)(C)CO` [Compound 37, S-2-{3-[(R)-2,4-dihydroxy-3,3-dimethylbutyrylamino]propionylamino}ethyl 3-methyl-2-butenethioate], the inhibition at 10 µM is not below 10% in test [1] (Fibroblast, VLCFA GM13262, Assay Condition C, read-out: Decreased ROS by at least 10%) and not below 30% in test [1] (setting [9]).
